The assay deals with hPAD4 enzyme (Homo sapiens (Human), UniProt Q9UM07). As to the kind of experiment: RFMS2 assay (RapidFire mass spectrometry, TSTGGRQGSHH peptide substrate). Particulars: 35 nM recombinant human PAD4, 500 μM TSTGGRQGSHH peptide, 30 minutes at room temperature; read-out: RFMS 2 IC50. The assay is classed as biochemical. The procedure, abridged:
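IC50 derived from RapidFire LC-MS/MS (positive ESI MRM) of substrate versus product after a 30 min room-temperature reaction stopped with 10% formic acid. Reaction contained 35 nM human PAD4, 500 μM peptide, 2 mM CaCl2, 5 mM DTT at pH 7.4, and compounds diluted 3-fold from 20 μM.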

Sequence of hPAD4 enzyme (Q9UM07 whole entry): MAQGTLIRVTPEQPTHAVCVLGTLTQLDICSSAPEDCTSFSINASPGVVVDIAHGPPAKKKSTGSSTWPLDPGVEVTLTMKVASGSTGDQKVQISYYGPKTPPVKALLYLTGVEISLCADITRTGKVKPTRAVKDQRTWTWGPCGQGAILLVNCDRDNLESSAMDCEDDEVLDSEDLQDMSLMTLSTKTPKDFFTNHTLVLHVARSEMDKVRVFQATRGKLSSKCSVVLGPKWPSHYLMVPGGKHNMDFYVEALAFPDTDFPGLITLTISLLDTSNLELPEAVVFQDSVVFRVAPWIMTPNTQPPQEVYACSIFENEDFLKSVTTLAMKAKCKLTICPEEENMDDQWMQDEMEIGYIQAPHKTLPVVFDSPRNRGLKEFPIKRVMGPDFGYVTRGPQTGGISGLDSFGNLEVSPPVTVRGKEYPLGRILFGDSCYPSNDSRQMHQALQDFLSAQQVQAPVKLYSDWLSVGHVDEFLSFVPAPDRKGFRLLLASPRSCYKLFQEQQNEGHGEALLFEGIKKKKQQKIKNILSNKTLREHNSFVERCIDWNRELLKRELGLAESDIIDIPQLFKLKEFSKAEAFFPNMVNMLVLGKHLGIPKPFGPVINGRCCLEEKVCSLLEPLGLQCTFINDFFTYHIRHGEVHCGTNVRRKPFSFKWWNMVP

The term IC50 denotes the concentration needed to halve the response being measured. With `Cn1c(-c2cc3cccc(OC[C@@H]4CCC(=O)N4)c3n2CC2CC2)nc2cc3c(cc21)CCN(C[C@H](N)CF)C3=O` [Example 156, 6-((S)-2-amino-3-fluoropropyl)-2-(1-(cyclopropyl-methyl)-7-(((S)-5-oxopyrrolidin-2-yl)methoxy)-1H-indol-2-yl)-1-methyl-1,6,7,8-tetrahydro-5H-imidazo [4,5-g]isoquinolin-5-one], the 50% inhibitory concentration (IC50) fell in the range of 101 to 500 nM. Turning to `Cn1c(-c2cc3cccc(OC[C@H]4CCC(=O)N4)c3n2CC2CC2)nc2cc3c(cc21)CCN(C[C@H](N)CF)C3=O` [Example 157, 6-((S)-2-amino-3-fluoropropyl)-2-(1-(cyclopropyl-methyl)-7-(((R)-5-oxopyrrolidin-2-yl)methoxy)-1H-indol-2-yl)-1-methyl-1,6,7,8-tetrahydro-5H-imidazo [4,5-g]isoquinolin-5-one], the half-inhibitory concentration (IC50) lay in the range of 101 to 500 nM.

On to `Cn1c(-c2cc3cccc(OCCN4CCOCC4)c3n2CC2CC2)nc2cc3c(cc21)CCN(C[C@H](N)CF)C3=O` [Example 158, (S)-6-(2-amino-3-fluoropropyl)-2-(1-(cyclopropyl-methyl)-7-(2-morpholinoethoxy)-1H-indol-2-yl)-1-methyl-1,6,7,8-tetrahydro-5H-imidazo[4,5-g] isoquinolin-5-one], for which the half-inhibitory concentration (IC50) fell in the range of 501 to 1000 nM.

In the case of `Cn1c(-c2cc3cccc(OC[C@@H]4CNCCO4)c3n2CC2CC2)nc2cc3c(cc21)CCN(C[C@H](N)CF)C3=O` [Example 159, 6-((S)-2-amino-3-fluoropropyl)-2-(1-(cyclopropyl-methyl)-7-(((S)-morpholin-2-yl)methoxy)-1H-indol-2-yl)-1-methyl-1,6,7,8-tetrahydro-5H-imidazo[4,5-g] isoquinolin-5-one], the half-maximal inhibitory concentration (IC50) lay within 501 to 1000 nM. Then `Cn1c(-c2cc3cccc(OC[C@H]4CNCCO4)c3n2CC2CC2)nc2cc3c(cc21)CCN(C[C@H](N)CF)C3=O` [Example 160, 6-((S)-2-amino-3-fluoropropyl)-2-(1-(cyclopropylmethyl)-7-(((R)-morpholin-2-yl)methoxy)-1H-indol-2-yl)-1-methyl-1,6,7,8-tetrahydro-5H-imidazo[4,5-g]isoquinolin-5-one], with 501 to 1000 nM; and `Cn1c(-c2cc3cccc(OCC4CCOCC4)c3n2CC2CC2)nc2cc3c(cc21)CCN(C[C@H](N)CF)C3=O` [Example 161, (S)-6-(2-amino-3-fluoropropyl)-2-(1-(cyclopropylmethyl)-7-((tetrahydro-2H-pyran-4-yl)methoxy)-1H-indol-2-yl)-1-methyl-1,6,7,8-tetrahydro-5H-imidazo[4,5-g]isoquinolin-5-one], with 501 to 1000 nM.

In the case of `Cc1nc(C)n(CCOc2cccc3cc(-c4nc5cc6c(cc5n4C)CCN(C[C@H](N)CF)C6=O)n(CC4CC4)c23)n1` [Example 162, (S)-6-(2-amino-3-fluoropropyl)-2-(1-(cyclopropyl-methyl)-7-(2-(3,5-dimethyl-1H-1,2,4-triazol-1-yl)ethoxy)-1H-indol-2-yl)-1-methyl-1,6,7,8-tetrahydro-5H-imidazo[4,5-g]isoquinolin-5-one], the concentration for half-maximal inhibition (IC50) lay in the range of 101 to 500 nM. For the molecule `Cc1ncnn1CCOc1cccc2cc(-c3nc4cc5c(cc4n3C)CCN(C[C@H](N)CF)C5=O)n(CC3CC3)c12` [Example 163, (S)-6-(2-amino-3-fluoropropyl)-2-(1-(cyclopropylmethyl)-7-(2-(5-methyl-1H-1,2,4-triazol-1-yl)ethoxy)-1H-indol-2-yl)-1-methyl-1,6,7,8-tetrahydro-5H-imidazo[4,5-g]isoquinolin-5-one], the IC50 is 101 to 500 nM. Turning to `Cc1ncn(CCOc2cccc3cc(-c4nc5cc6c(cc5n4C)CCN(C[C@H](N)CF)C6=O)n(CC4CC4)c23)n1` [Example 164, (S)-6-(2-amino-3-fluoropropyl)-2-(1-(cyclopropyl-methyl)-7-(2-(3-methyl-1H-1,2,4-triazol-1-yl)ethoxy)-1H-indol-2-yl)-1-methyl-1,6,7,8-tetrahydro-5H-imidazo[4,5-g]isoquinolin-5-one], the IC50 is 11 to 100 nM. As for `Cn1c(-c2cc3cccc(OCc4cnco4)c3n2CC2CC2)nc2cc3c(cc21)CCN(C[C@H](N)CF)C3=O` [Example 166, (S)-6-(2-amino-3-fluoropropyl)-2-(1-(cyclopropyl-methyl)-7-(oxazol-5-ylmethoxy)-1H-indol-2-yl)-1-methyl-1,6,7,8-tetrahydro-5H-imidazo[4,5-g] isoquinolin-5-one], the figure is 101 to 500 nM; as for `Cn1c(-c2cc3cccc(OCc4ccon4)c3n2CC2CC2)nc2cc3c(cc21)CCN(C[C@H](N)CF)C3=O` [Example 167, (S)-6-(2-amino-3-fluoropropyl)-2-(1-(cyclopropylmethyl)-7-(isoxazol-3-ylmethoxy)-1H-indol-2-yl)-1-methyl-1,6,7,8-tetrahydro-5H-imidazo[4,5-g]isoquinolin-5-one], 101 to 500 nM. For `Cn1c(-c2cc3cccc(OC[C@H]4CNC(=O)O4)c3n2CC2CC2)nc2cc3c(cc21)CCN(C[C@H](N)CF)C3=O` [Example 168, (R)-5-(((2-(6-((S)-2-amino-3-fluoropropyl)-1-methyl-5-oxo-5,6,7,8-tetrahydro-1H-imidazo [4,5-g]isoquinolin-2-yl)-1-(cyclopropylmethyl)-1H-indol-7-yl)oxy)methyl)oxazolidin-2-one], the 50% inhibitory concentration (IC50) lay within 11 to 100 nM. On to `Cn1c(-c2cc3cccc(OCCc4ccon4)c3n2CC2CC2)nc2cc3c(cc21)CCN(C[C@H](N)CF)C3=O` [Example 170, (S)-6-(2-amino-3-fluoropropyl)-2-(1-(cyclopropyl-methyl)-7-(2-(isoxazol-3-yl)ethoxy)-1H-indol-2-yl)-1-methyl-1,6,7,8-tetrahydro-5H-imidazo[4,5-g] isoquinolin-5-one], for which the half-maximal inhibitory concentration (IC50) is 101 to 500 nM. Turning to `Cn1c(-c2cc3cccc(OCc4ccnnc4)c3n2CC2CC2)nc2cc3c(cc21)CCN(C[C@H](N)CF)C3=O` [Example 171, (S)-6-(2-amino-3-fluoropropyl)-2-(1-(cyclopropylmethyl)-7-(pyridazin-4-ylmethoxy)-1H-indol-2-yl)-1-methyl-1,6,7,8-tetrahydro-5H-imidazo [4,5-g]isoquinolin-5-one], the IC50 fell in the range of 101 to 500 nM. As for `Cn1c(-c2cc3cccc(OCC4COC(=O)N4)c3n2CC2CC2)nc2cc3c(cc21)CCN(C[C@H](N)CF)C3=O` (stereo partly drawn) [Example 172, 4-(((2-(6-((S)-2-amino-3-fluoropropyl)-1-methyl-5-oxo-5,6,7,8-tetrahydro-1H-imidazo[4,5-g]isoquinolin-2-yl)-1-(cyclopropylmethyl)-1H-indol-7-yl)oxy)methyl)oxazolidin-2-one], the figure is 11 to 100 nM; as for `Cn1c(-c2cc3cccc(OCCc4cc[nH]n4)c3n2CC2CC2)nc2cc3c(cc21)CCN(C[C@H](N)CF)C3=O` [Example 173, (S)-2-(7-(2-(1H-pyrazol-3-yl)ethoxy)-1-(cyclopropylmethyl)-1H-indol-2-yl)-6-(2-amino-3-fluoropropyl)-1-methyl-1,6,7,8-tetrahydro-5H-imidazo [4,5-g]isoquinolin-5-one], 11 to 100 nM; as for `Cn1c(-c2cc3cccc(OCc4ccno4)c3n2CC2CC2)nc2cc3c(cc21)CCN(C[C@H](N)CF)C3=O` [Example 175, (S)-6-(2-amino-3-fluoropropyl)-2-(1-(cyclopropyl-methyl)-7-(isoxazol-5-ylmethoxy)-1H-indol-2-yl)-1-methyl-1,6,7,8-tetrahydro-5H-imidazo[4,5-g] isoquinolin-5-one], 101 to 500 nM.

For the origin of these results see patent US20250346592A1 (Celgene Corporation, priority 2022, published 2025).
